Measured values: patent US8314112B2 (Novartis AG, priority 2008, dated 2012)

Biological target: T1, human ALK5 (kinase domain, ALK5 T204D) (Homo sapiens, UniProt P36897, T204D)
T1 construct: The kinase domain of human ALK5 (amino acids 200-503); made in house; host or cells: insect cells (baculovirus)
T1 sequence (P36897 200-503 T204D): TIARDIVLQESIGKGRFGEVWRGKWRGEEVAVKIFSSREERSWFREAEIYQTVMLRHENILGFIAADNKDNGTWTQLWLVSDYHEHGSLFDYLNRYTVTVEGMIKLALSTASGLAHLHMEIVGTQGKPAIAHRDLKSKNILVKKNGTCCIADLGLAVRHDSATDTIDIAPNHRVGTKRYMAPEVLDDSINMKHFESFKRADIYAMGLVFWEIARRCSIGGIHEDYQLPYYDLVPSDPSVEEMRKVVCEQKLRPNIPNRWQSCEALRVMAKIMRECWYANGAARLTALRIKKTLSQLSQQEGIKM
Assay: ALK5 kinase assay ([33P] phosphate incorporation into casein)
Assay type: biochemical
Details: casein substrate, 1 μM unlabelled ATP
Method: The kinase activity of ALK5 is assessed by measuring radiolabelled phosphate [33P] incorporation in to the generic substrate, casein. The kinase domain of human ALK5 (amino acids 200-503) is fused to an N-terminal histidine tag. The kinase activity of ALK5 is rendered constitutive via point mutation at amino acid 204 (threonine to aspartate modification, ALK5 T204D) and the kinase construct is engineered to be expressed from a baculovirus expression construct in insect cells. The purified, recombinantly-expressed histidine-tagged ALK5 T204D protein is dissolved at 5.4 mg/ml in 50 mM Tris-HCl pH 8.0, 150 mM NaCl, 5 mM DTT. ALK5 T204D is dissolved to 2.5 μg/ml in assay buffer (Assay buffer: 20 mM Tris-HCl pH 7.4, 10 mM MgCl2, 2 mM MnCl2) on the day of use.
Test compounds and reference compounds are dissolved in assay buffer without DTT containing 5% (v/v) DMSO. Stock solutions of test and reference compounds are diluted in assay buffer with DTT (1.25 mM) containing 4.5% (v/v) DMSO. 10 μl of test or reference compound are added to the appropriate wells of 96 well U-bottomed plate. Total enzyme activity is determined by measuring ALK5 T204D activity in the absence of ALK5 kinase inhibitor reference compounds. Non-specific binding (NSB) is determined by measuring the activity of ALK5 T204D in the presence of ALK5 kinase inhibitor reference compounds. 10 μl of dephosphorylated casein stock solution (dephosphorylated casein is dissolved in ddH2O at 20 mg/ml) is added per well (200 μg/well final assay concentration). 20 μl of ALK5 T204D (2.5 μg/ml solution) is added per well (50 ng/well final assay concentration). The plates are left to incubate at room temperature for 10 minutes.
10 μl of ATP mix is added to the well to initiate the reaction (0.66 nM [^33P]ATP/1 μM unlabelled ATP/well final assay concentration). The ATP mix is prepared as follows, unlabelled ATP (3 mM) is dissolved in ddH2O and pH adjusted to 7.4. The stock concentration of [^33P]ATP is 10 μCi/μl. The appropriate volume of [^33P]ATP is added to unlabelled ATP solution such that the final assay concentration per well is 0.1 μCi. Following addition of the ATP mix, the plates are incubated at room temperature for 50 minutes. The kinase reaction is terminated by the addition of 50 μL Stop Buffer (20 mM Tris-HCl pH 7.4, 10 mM EDTA).
75 μl/well from the reaction plate is transferred to a Multiscreen-IP plate (MultiScreen-IP plates are prepared by added 50 μL of 70% (v/v) ethanol per well and incubated for 5 minutes at room temperature. The ethanol is removed by aspiration via a MultiScreen HTS Vaccum Manifold unit (Millipore, Cat no: MSVMHT500). The plates are washed twice by adding 200 μl/well ddH2O). The MultiScreen-IP plate is incubated at room temperature for 30 minutes to allowing binding of casein to the plate. The MultiScreen-IP plates are washed three times by adding 200 μl/well 100 mM phosphoric acid solution and the gasket is carefully removed from the back of the MultiScreen-IP plate and the plate dried in the oven for 30 minutes. The MultiScreen-IP plate is backsealed, 50 μL of Microscint™20 is added, then the plates are topsealed and radiolabelled casein detected and quantified on a TopCount™ plate-reader using the ^33P scintillation protocol.

Compared with `c1ccc(-c2nc(-c3cccnc3)c3cc[nH]c3n2)nc1` [Example 1, 4-Pyridin-3-yl-2-pyridin-2-yl-7H-pyrrolo[2,3-d]pyrimidine], `Cc1cccc(-c2nc(-c3cccnc3)c3cc[nH]c3n2)n1` [Example 2, 2-(6-methyl-pyridin-2-yl)-4-pyridin-3-yl-7H-pyrrolo[2,3-d]pyrimidine] is 3.1-fold lower in IC50: 1180 nM for the first, 380 nM for the second. The second is the more potent here.

First: COc1cncc(-c2nc(-c3cccc(C)n3)nc3[nH]ccc23)c1 [Example 3, 4-(5-Methoxy-pyridin-3-yl)-2-(6-methyl-pyridin-2-yl)-7H-pyrrolo[2,3-d]pyrimidine]
Second: Cc1cccc(-c2nc(-c3cncc(Br)c3)c3cc[nH]c3n2)n1 [Example 16, 4-(5-bromo-pyridin-3-yl)-2-(6-methyl-pyridin-2-yl)-7H-pyrrolo[2,3-d]pyrimidine]
The IC50 of the first is 14-fold lower: 130 nM for the first, 1810 nM for the second. The first is the more potent here.

Compared with `Cc1cccc(-c2nc(-c3cncc(-c4ccccc4)c3)c3cc[nH]c3n2)n1` [Example 4, 2-(6-Methyl-pyridin-2-yl)-4-(5-phenyl-pyridin-3-yl)-7H-pyrrolo[2,3-d]pyrimidine], `Cc1cccc(-c2nc(-c3cncc(-c4cccc(O)c4)c3)c3cc[nH]c3n2)n1` [Example 23, 3-{5-[2-(6-Methyl-pyridin-2-yl)-7H-pyrrolo[2,3-d]pyrimidin-4-yl]-pyridin-3-yl}-phenol] is 2.4-fold lower in IC50: 34 nM for the first, 14 nM for the second. The second is the more potent here.

Going from `COc1ccc(-c2cncc(-c3nc(-c4cccc(C)n4)nc4[nH]ccc34)c2)cc1` [Example 5, 4-[5-(4-Methoxy-phenyl)-pyridin-3-yl]-2-(6-methyl-pyridin-2-yl)-7H-pyrrolo[2,3-d]pyrimidine] to `Cc1cccc(-c2nc(-c3cncc(-c4ccc(F)cc4)c3)c3cc[nH]c3n2)n1` [Example 7, 4-[5-(4-Fluoro-phenyl)-pyridin-3-yl]-2-(6-methyl-pyridin-2-yl)-7H-pyrrolo[2,3-d]pyrimidine], the IC50 falls from 115 nM to 45 nM (2.6-fold). The second is the more potent here.

`COc1cccc(-c2cncc(-c3nc(-c4cccc(C)n4)nc4[nH]ccc34)c2)c1` [Example 6, 4-[5-(3-Methoxy-phenyl)-pyridin-3-yl]-2-(6-methyl-pyridin-2-yl)-7H-pyrrolo[2,3-d]pyrimidine] and `Cc1cccc(-c2nc(-c3cncc(-c4cccnc4)c3)c3cc[nH]c3n2)n1` [Example 22, 5-[2-(6-Methyl-pyridin-2-yl)-7H-pyrrolo[2,3-d]pyrimidin-4-yl]-[3,3′]bipyridinyl] are within 1.5-fold of each other in IC50: 32 nM for the first, 44 nM for the second.

Compared with `COc1ccccc1-c1cncc(-c2nc(-c3cccc(C)n3)nc3[nH]ccc23)c1` [Example 8, 4-[5-(2-Methoxy-phenyl)-pyridin-3-yl]-2-(6-methyl-pyridin-2-yl)-7H-pyrrolo[2,3-d]pyrimidine], `Cc1cccc(-c2nc(-c3cncc(-c4ccccc4F)c3)c3cc[nH]c3n2)n1` [Example 24, 4-[5-(2-Fluoro-phenyl)-pyridin-3-yl]-2-(6-methyl-pyridin-2-yl)-7H-pyrrolo[2,3-d]pyrimidine] is 14-fold lower in IC50: 478 nM for the first, 34 nM for the second. The second is the more potent here.

Going from `Cc1cccc(-c2nc(-c3cncc(-c4ccc(C(=O)N5CCN(C)CC5)cc4)c3)c3cc[nH]c3n2)n1` [Example 9, (4-methyl-piperazin-1-yl)-(4-{5-[2-(6-methyl-pyridin-2-yl)-7H-pyrrolo[2,3-d]pyrimidin-4-yl]-pyridin-3-yl}-phenyl)-methanone] to `Cc1cccc(-c2nc(-c3cncc(-c4ccc(CN5CCN(C)CC5)cc4)c3)c3cc[nH]c3n2)n1` [Example 20, 4-{5-[4-(4-Methyl-piperazin-1-ylmethyl)-phenyl]-pyridin-3-yl}-2-(6-methyl-pyridin-2-yl)-7H-pyrrolo[2,3-d]pyrimidine], the IC50 rises from 13 nM to 45 nM (3.5-fold).

First: Cc1cccc(-c2nc(-c3cncc(-c4cccc(CN5CCN(C)CC5)c4)c3)c3cc[nH]c3n2)n1 [Example 10, 4-{5-[3-(4-Methyl-piperazin-1-ylmethyl)-phenyl]-pyridin-3-yl}-2-(6-methyl-pyridin-2-yl)-7H-pyrrolo[2,3-d]pyrimidine]
Second: Cc1cccc(-c2nc(-c3cncc(-c4cccc(N5CCCC5)c4)c3)c3cc[nH]c3n2)n1 [Example 18, 2-(6-Methyl-pyridin-2-yl)-4-[5-(3-pyrrolidin-1-yl-phenyl)-pyridin-3-yl]-7H-pyrrolo[2,3-d]pyrimidine]
The IC50 of the first is 3.4-fold lower: 50 nM for the first, 172 nM for the second.

`CCNC(=O)c1cncc(-c2nc(-c3cccc(C)n3)nc3[nH]ccc23)c1` [Example 11, N-Ethyl-5-[2-(6-methyl-pyridin-2-yl)-7H-pyrrolo[2,3-d]pyrimidin-4-yl]-nicotinamide] and `Cc1cccc(-c2nc(-c3cncc(C(=O)NCCN(C)C)c3)c3cc[nH]c3n2)n1` [Example 12, N-(2-Dimethylamino-ethyl)-5-[2-(6-methyl-pyridin-2-yl)-7H-pyrrolo[2,3-d]pyrimidin-4-yl]-nicotinamide] are within 1.5-fold of each other in IC50: 367 nM for the first, 345 nM for the second.

First: Cc1cccc(-c2nc(-c3cncc(C(=O)NCCCN(C)C)c3)c3cc[nH]c3n2)n1 [Example 13, N-(3-Dimethylamino-propyl)-5-[2-(6-methyl-pyridin-2-yl)-7H-pyrrolo[2,3-d]pyrimidin-4-yl]-nicotinamide]
Second: Cc1cccc(-c2nc(-c3cncc(C(=O)NCCCO)c3)c3cc[nH]c3n2)n1 [Example 26, N-(3-Hydroxy-propyl)-5-[2-(6-methyl-pyridin-2-yl)-7H-pyrrolo[2,3-d]pyrimidin-4-yl]-nicotinamide]
The IC50 of the first is 2.6-fold lower: 177 nM for the first, 465 nM for the second.

Going from `Cc1cccc(-c2nc(-c3cncc(-c4ccc(N5CCN(C(C)C)CC5)cc4)c3)c3cc[nH]c3n2)n1` [Example 15, 4-{5-[4-(4-Isopropyl-piperazin-1-yl)-phenyl]-pyridin-3-yl}-2-(6-methyl-pyridin-2-yl)-7H-pyrrolo[2,3-d]pyrimidine] to `Cc1cccc(-c2nc(-c3cncc(-c4ccc(N5CCCCC5)cc4)c3)c3cc[nH]c3n2)n1` [Example 17, 2-(6-Methyl-pyridin-2-yl)-4-[5-(4-piperidin-1-yl-phenyl)-pyridin-3-yl]-7H-pyrrolo[2,3-d]pyrimidine], the IC50 rises from 160 nM to 929 nM (5.8-fold). The first is the more potent here.

Compared with `Cc1cccc(-c2nc(-c3cncc(-c4ccncc4)c3)c3cc[nH]c3n2)n1` [Example 21, 5-[2-(6-Methyl-pyridin-2-yl)-7H-pyrrolo[2,3-d]pyrimidin-4-yl]-[3,4′]bipyridinyl], `Cc1cccc(-c2nc(-c3cnc4ccccc4c3)c3cc[nH]c3n2)n1` [Example 28, 3-[2-(6-Methyl-pyridin-2-yl)-7H-pyrrolo[2,3-d]pyrimidin-4-yl]-quinoline] is 2.2-fold higher in IC50: 84 nM for the first, 184 nM for the second. The first is the more potent here.

Compared with `Cc1cccc(-c2nc(-c3cncc(C(=O)NCCCN4CCN(C)CC4)c3)c3cc[nH]c3n2)n1` [Example 25, N-[3-(4-Methyl-piperazin-1-yl)-propyl]-5-[2-(6-methyl-pyridin-2-yl)-7H-pyrrolo[2,3-d]pyrimidin-4-yl]-nicotinamide], `CCC(=O)Nc1cncc(-c2nc(-c3cccc(C)n3)nc3[nH]ccc23)c1` [Example 27, N-{5-[2-(6-Methyl-pyridin-2-yl)-7H-pyrrolo[2,3-d]pyrimidin-4-yl]-pyridin-3-yl}-propionamide] is 3.2-fold higher in IC50: 223 nM for the first, 723 nM for the second.

Compound `Cc1cccc(-c2nc(-c3cncc4ccccc34)c3cc[nH]c3n2)n1` [Example 29, 4-[2-(6-Methyl-pyridin-2-yl)-7H-pyrrolo[2,3-d]pyrimidin-4-yl]-isoquinoline] has an IC50 of 11 nM.
